Data set [1] concerns the target T1, human neutrophil elastase (Homo sapiens, UniProt P08246).
T1 construct: purchased Elastin Products Company
T1 sequence (P08246 30-267): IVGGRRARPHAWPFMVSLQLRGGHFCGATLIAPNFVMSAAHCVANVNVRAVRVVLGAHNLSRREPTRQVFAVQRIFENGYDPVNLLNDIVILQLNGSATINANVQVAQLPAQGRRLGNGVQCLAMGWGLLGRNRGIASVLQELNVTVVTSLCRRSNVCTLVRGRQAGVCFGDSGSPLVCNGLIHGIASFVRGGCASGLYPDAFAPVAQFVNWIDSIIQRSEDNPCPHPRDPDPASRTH
Description: Inhibitory action 2 against human neutrophil elastase (Test Example 2; fluorogenic substrate MeOSuc-AAPV-AMC, buffer with 400 mM NaCl, 0.2 mg/ml BSA). It is filed as biochemical. As to conditions: 37° C., read-out: IC50 value (compound concentration required for 50% inhibition of human neutrophil elastase). As for the experimental part:
Assay buffer (0.4 unit/ml HNE (human neutrophil elastase, available from Elastin Products Company), 200 mM HEPES [N-(2-hydroxyethyl)piperazine-N′-(2-ethanesulfonic acid)], pH 7.5, 400 mM NaCl, 0.2 mg/ml BSA (bovine serum albumin)) 100 μl, water for injection 20 μl and 1% DMSO (dimethyl sulfoxide) solution of the present compound 20 μl were mixed in a 96 well plate and the mixed solutions were pre-incubated at 37° C. for five minutes. After pre-incubation, MeOSuc-AAPV-AMC (methoxysuccinyl-alanyl-alanyl-prolyl-valyl-aminomethyl cumaride (available from Sigma Aldrich Corp.) solution as fluorogenic substrate (which was dissolved in 10% DMSO solution so as to adjust to 0.5 mM) 40 μl was added to the above-prepared mixed solution so as to initiate the reaction, and the mixture was incubated at 37° C. for five minutes. The fluorescence intensity of AMC was measured at an excitation wavelength of 380 nm and a fluorescence wavelength of 460 nm and the inhibition ratio was determined.

Data set [2] deals with T1, human neutrophil elastase. The data set is described as follows: Inhibitory action against human neutrophil elastase (Test Example 1; fluorogenic substrate MeOSuc-AAPV-AMC, buffer with 2M NaCl, 0.002% Brij-35). It is filed as biochemical. As to conditions: 37° C., read-out: IC50 value (compound concentration required for 50% inhibition of human neutrophil elastase). The method, boiled down:
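Enzyme (0.4 unit/ml in stock buffer: 200 mM HEPES pH 7.5, 2M NaCl, 0.002% Brij-35) preincubated with compound 5 min at 37 °C. Reaction started with MeOSuc-AAPV-AMC (0.5 mM stock) and run 5 min at 37 °C; AMC fluorescence (ex 380, em 460 nm) gave inhibition ratio.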

Each structure is given as a SMILES string.

The source of these data is patent publication US9040516B2, “Uracil derivative and use thereof for medical purposes” (SUMITOMO DAINIPPON PHARMA CO., LTD., priority 2011, dated 2015).

The melting point is the temperature, or range, at which the solid turns liquid.

Regarding `Cc1c(-c2ccnn2-c2ccc(C#N)cc2)c(=O)n(C)c(=O)n1-c1cccc(C(F)(F)F)c1` [Example 1, 4-[5-[3,6-dimethyl-2,4-dioxo-1-(3-trifluoromethylphenyl)-1,2,3,4-tetrahydropyrimidin-5-yl]-1H-pyrazol-1-yl]benzonitrile], the IC50 in data set [1] was 16.9 nM; in data set [2] it was 19 nM.

As for `CCCn1c(=O)c(-c2ccnn2-c2ccc(C#N)cc2)c(C)n(-c2cccc(C(F)(F)F)c2)c1=O` [Example 2, 4-[5-[6-methyl-2,4-dioxo-3-propyl-1-(3-trifluoromethylphenyl)-1,2,3,4-tetrahydropyrimidin-5-yl]-1H-pyrazol-1-yl]benzonitrile], the values for the IC50 in data set [1] and in data set [2] were 18.6 nM and 35 nM, respectively.

On to `Cc1c(-c2ccnn2-c2ccc(C#N)cc2)c(=O)n(C)c(=O)n1-c1cccc(Cl)c1` [Example 17, 4-[5-[1-(3-chlorophenyl)-3,6-dimethyl-2,4-dioxo-1,2,3,4-tetrahydropyrimidin-5-yl]-1H-pyrazol-1-yl]benzonitrile], for which the IC50 is 23.4 nM in data set [1] and 95 nM in data set [2].

`Cc1cccc(-n2c(C)c(-c3ccnn3-c3ccc(C#N)cc3)c(=O)n(C)c2=O)c1` [Example 37, 4-(5-(3,6-dimethyl-2,4-dioxo-1-m-tolyl-1,2,3,4-tetrahydropyrimidin-5-yl)-1H-pyrazol-1-yl)benzonitrile]: the IC50 in data set [1] amounted to 64.2 nM; in data set [2], 191 nM.

Regarding `Cc1c(-c2ccnn2-c2ccc(C#N)cc2S(C)(=O)=O)c(=O)n(C)c(=O)n1-c1cccc(C(F)(F)F)c1` [Example 102, 4-[5-[3,6-Dimethyl-2,4-dioxo-1-(3-trifluoromethylphenyl)-1,2,3,4-tetrahydropyrimidin-5-yl]-1H-pyrazol-1-yl]-3-(methylsulfonyl)benzonitrile], the IC50 in data set [2] was found to be 150 nM.

For the molecule `Cc1c(-c2ccnn2-c2ccc(C#N)cc2)c(=O)n(C)c(=O)n1-c1cccc(C(=O)O)c1` [Example 103, 3-[5-[1-(4-Cyanophenyl)-1H-pyrazol-5-yl]-3,6-dimethyl-2,4-dioxo-3,4-dihydropyrimidin-1(2H)yl]benzoic acid], in data set [2], the IC50 was determined as 12200 nM.

For the molecule `Cc1c(-c2ccnn2-c2ccc(C#N)cc2)c(=O)n(C)c(=O)n1-c1cccc(C(N)=O)c1` [Example 104, 3-[5-[1-(4-Cyanophenyl)1H-pyrazol-5-yl]-3,6-dimethyl-2,4-dioxo-3,4-dihydropyrimidin-1(2H)yl]benzamide], the IC50 in data set [2] came out at 92500 nM.

`CNC(=O)c1cccc(-n2c(C)c(-c3ccnn3-c3ccc(C#N)cc3)c(=O)n(C)c2=O)c1` [Example 105, 3-[5-[1-(4-cyanophenyl)1H-pyrazol-5-yl]-3,6-dimethyl-2,4-dioxo-3,4-dihydropyrimidin-1(2H)yl]-N-methylbenzamide]: the IC50 in data set [2] worked out at 22300 nM.

As for `Cc1c(-c2ccnn2-c2ccc(C#N)cc2)c(=O)n(C)c(=O)n1-c1cccc(C(=O)N(C)C)c1` [Example 106, 3-[5-[1-(4-cyanophenyl)1H-pyrazol-5-yl]-3,6-dimethyl-2,4-dioxo-3,4-dihydropyrimidin-1(2H)yl]-N,N-dimethylbenzamide], the IC50 in data set [2] was determined as 13900 nM.

On to `Cc1c(-c2ccnn2-c2ccc(C#N)cc2)c(=O)n(C)c(=O)n1-c1cccc(-c2ccccc2)c1` [Example 107, 4-(5-(1-(Biphenyl-3-yl)-3,6-dimethyl-2,4-dioxo-1,2,3,4-tetrahydropyrimidin-5-yl)-1H-pyrazol-1-yl)benzonitrile], for which the IC50 in data set [2] amounted to 5400 nM.

On to `CCc1cccc(-n2c(C)c(-c3ccnn3-c3ccc(C#N)cc3)c(=O)n(C)c2=O)c1` [Example 108, 4-[5-[3,6-Dimethyl-2,4-dioxo-1-(3-ethylphenyl)-1,2,3,4-tetrahydropyrimidin-5-yl]-1H-pyrazol-1-yl]benzonitrile], for which the IC50 in data set [2] came out at 332 nM.

For the molecule `Cc1c(-c2c(C(N)=O)cnn2-c2ccc(C#N)cc2)c(=O)n(C)c(=O)n1-c1cccc(C(F)(F)F)c1` [Example 148], the melting point came to 263 °C. The IC50 in data set [1] turned out to be 14.5 nM.

`Cc1c(-c2c(C(=O)N3CCCC3)cnn2-c2ccc(C#N)cc2)c(=O)n(C)c(=O)n1-c1cccc(C(F)(F)F)c1` [Example 162] showed a melting point of 227 °C. In addition, the IC50 in data set [1] worked out at 12.6 nM.

Molecule `Cc1c(-c2ccnn2-c2ccc(C#N)cc2)c(=O)n(C(C)C(N)=O)c(=O)n1-c1cccc(C(F)(F)F)c1` (stereo not drawn) [Example 377] registered a melting point of 226 °C. Further, the IC50 in data set [1] came to 11 nM.
